In patent US9687499B2, “Method using heat shock protein inhibitor for treating hepatitis and hepatoma” (National Tsing Hua University, priority 2014, dated 2017):

Tests used:
[1] = Liver function test (GPT) in mice; assay type: in vivo; details: FIG. 4b
Text: GPT (Glutamate Pyruvate Transaminase) is used to monitor the liver function of the mice.

liver cell line Pre-S2 = experiment: Toxicity to liver cells, Pre-S2 cell line; assay type: cell-based
hepatitis B virus [2] = experiment: HBsAg-positive liver cells in liver sections of mice; details: month-long treatment, FIG. 5b
liver cell line SNAP = experiment: Toxicity to liver cells, SNAP cell line
liver cell line WT = experiment: Toxicity to liver cells, WT cell line
hepatitis B virus [3] = experiment: HBsAg in blood serum of AdHBV-infected mice; assay type: in vivo; details: intravenous, 20 mg/ml, FIG. 4a
Experimental: Intravenous injection of […] and Pifithrin-μ can successfully reduce the hepatitis B surface antigen (HBsAg) in the blood serum of mice, wherein the mice are continuously infected by hepatitis B virus in an adenovirus genome transfer technology (AdHBV). Each group has three mice. The experiment design is as follows: inject AdHBV into mice continuously for 28 days; respectively inject a mock medication, 20 mg/ml […], and 20 mg/ml Pifithrin-μ into the mice intravenously; collect the samples of the blood serum and livers for serological and pathological analyses.

parental NeHepLxHT = experiment: Selective cytotoxicity in co-culture, parental cells; assay type: cell-based; details: 40 μM, 24 hours, FIG. 3b
Experimental: […]. The LHBs-positive cells (SNAP cells 505) are labeled by green fluorescence and co-cultured with unlabeled parental NeHepLxHT. The group of the mixed cells is processed with 40 μM VER-155008 and then periodically recorded at time points separated by a longer interval of time for 48 hours. The observed cellular quantities of the unlabeled cells (parental cells) and the green-labeled cells (LHBs-infected cells) are used to reveal typical cellular apoptosis. […].

HSP90 = HSP90 (Homo sapiens, UniProt P08238); details: selectivity over HSP90; cited from earlier work
HSP90, sequence (P08238 whole entry, species assumed): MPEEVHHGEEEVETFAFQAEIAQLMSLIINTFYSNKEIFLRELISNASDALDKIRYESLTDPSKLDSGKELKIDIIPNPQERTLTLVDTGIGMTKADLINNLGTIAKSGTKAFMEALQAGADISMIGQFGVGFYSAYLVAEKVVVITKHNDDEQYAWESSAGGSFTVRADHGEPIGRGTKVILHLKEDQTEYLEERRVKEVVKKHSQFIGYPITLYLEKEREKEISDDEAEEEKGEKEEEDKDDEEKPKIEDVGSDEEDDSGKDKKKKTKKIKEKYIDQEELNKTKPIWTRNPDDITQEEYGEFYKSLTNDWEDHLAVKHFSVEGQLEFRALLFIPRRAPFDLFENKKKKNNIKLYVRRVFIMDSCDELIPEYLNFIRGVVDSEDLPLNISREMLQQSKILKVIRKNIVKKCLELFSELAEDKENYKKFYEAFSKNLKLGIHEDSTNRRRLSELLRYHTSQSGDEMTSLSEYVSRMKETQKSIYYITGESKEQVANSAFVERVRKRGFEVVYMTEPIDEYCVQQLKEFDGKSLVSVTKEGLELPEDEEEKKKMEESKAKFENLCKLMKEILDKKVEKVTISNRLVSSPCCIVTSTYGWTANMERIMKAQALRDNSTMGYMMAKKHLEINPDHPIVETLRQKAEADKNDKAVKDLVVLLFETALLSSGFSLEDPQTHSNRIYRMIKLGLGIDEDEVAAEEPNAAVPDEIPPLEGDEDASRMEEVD

[4] = tested on: LHBs-positive cells (SNAP cells 505) expressing HBV-LHBs; experiment: Selective cytotoxicity in co-culture, LHBs-positive cells; assay type: cell-based; details: 40 μM
Experimental: With elapse of time, use a microscope to observe the selective cytotoxicity of VER-155008 to the cells expressing HBV-LHBs (hepatitis B virus large S protein). The LHBs-positive cells (SNAP cells 505) are labeled by green fluorescence and co-cultured with unlabeled parental NeHepLxHT. The group of the mixed cells is processed with 40 μM VER-155008 and then periodically recorded at time points separated by a longer interval of time for 48 hours. The observed cellular quantities of the unlabeled cells (parental cells) and the green-labeled cells (LHBs-infected cells) are used to reveal typical cellular apoptosis.

Row | SMILES | levels of GPT in the blood serums [1] | IC50 (liver cell line Pre-S2) [µM] | HBcAg-positive liver cells (hepatitis B virus [2]; high dosage (40 mg/Kg)) | IC50 (liver cell line SNAP) [µM] | IC50 (liver cell line WT) [µM] | levels of HBsAg in the blood serums (hepatitis B virus [3]) | survival of parental cells (parental NeHepLxHT) | HBsAg-positive liver cells (hepatitis B virus [2]; low dosage (20 mg/Kg) and high dosage (40 mg/Kg)) | effect to HSP70 and GRP78 relative to effect to HSP90 (HSP90) | death of LHBs-positive cells ([4]; 24 hours, FIG. 3b) | death of LHBs-infected cells ([4]; 48 hours, FIG. 3c)
1 | NS(=O)(=O)C#Cc1ccccc1 [Pifithrin-μ, 2-Phenylethynesulfonamide] | do not vary obviously | 11.8 | kill a portion of the HBcAg-positive liver cells | 17.5 | 12.2 | obviously reduced |  |  |  |  | 
2 | N#Cc1ccc(COC[C@H]2O[C@@H](n3c(NCc4ccc(Cl)c(Cl)c4)nc4c(N)ncnc43)[C@H](O)[C@@H]2O)cc1 [VER-155008, 5′-O-[(4-Cyanophenyl)methyl]-8-[[(3,4-dichlorophenyl)methyl]amino]-adenosine] | do not vary obviously | 18.8 |  | 36.2 | 18 | obviously reduced | still alive | different effects in decreasing the HBsAg-positive liver cells | over 100 times | many of the LHBs-positive cells are dead | almost all die
